In patent publication US8815893B2, “Hetarylaminonaphthyridines” (Merck Patent GmbH, priority 2010, dated 2014):
pIC50: −log10 of the molar value.

Legend:
[1] = system: lung epithelial cell line Mv1Lu; assay: Cellular assay for TGF-beta receptor I kinase inhibitors: elimination of TGF-beta-mediated growth inhibition (example 13); assay type: cell-based; conditions: 48 h; Mv1Lu cells, 1 ng/ml TGF-beta, 0.5% FCS, two days, Crystal Violet staining; read-out: TβR activity (example 13)
Protocol: Cellular Assay for Testing TGF-Beta Receptor I Kinase Inhibitors
As an example, the ability of the inhibitors to eliminate TGF-beta-mediated growth inhibition was tested. Cells of the lung epithelial cell line Mv1Lu were sown in a defined cell density in a 96-well microtiter plate and cultivated overnight under standard conditions. Next day, the medium was replaced by medium which comprises 0.5% of FCS and 1 ng/ml of TGF-beta, and the test substances were added in defined concentrations, generally in the form of dilution series with 5 fold steps. The concentration of the solvent DMSO was constant at 0.5%. After a further two days, Crystal Violet staining of the cells was carried out. After extraction of the Crystal Violet from the fixed cells, the absorption was measured spectrophotometrically at 550 nm. It could be used as a quantitative measure of the adherent cells present and thus of the cell proliferation during the culture.

GST-ALK5 = biological target: T1, GST-ALK5 (Homo sapiens, UniProt P36897); assay: In-vitro (enzyme) kinase assay, 384-well flashplate (example 14); assay type: biochemical; conditions: GST-ALK5, GST-SMAD2 substrate, 33P-ATP flashplate, 30° C. 45 min; IC50 classes; read-out: TβR activity (example 14)
T1 sequence (P36897 34-503): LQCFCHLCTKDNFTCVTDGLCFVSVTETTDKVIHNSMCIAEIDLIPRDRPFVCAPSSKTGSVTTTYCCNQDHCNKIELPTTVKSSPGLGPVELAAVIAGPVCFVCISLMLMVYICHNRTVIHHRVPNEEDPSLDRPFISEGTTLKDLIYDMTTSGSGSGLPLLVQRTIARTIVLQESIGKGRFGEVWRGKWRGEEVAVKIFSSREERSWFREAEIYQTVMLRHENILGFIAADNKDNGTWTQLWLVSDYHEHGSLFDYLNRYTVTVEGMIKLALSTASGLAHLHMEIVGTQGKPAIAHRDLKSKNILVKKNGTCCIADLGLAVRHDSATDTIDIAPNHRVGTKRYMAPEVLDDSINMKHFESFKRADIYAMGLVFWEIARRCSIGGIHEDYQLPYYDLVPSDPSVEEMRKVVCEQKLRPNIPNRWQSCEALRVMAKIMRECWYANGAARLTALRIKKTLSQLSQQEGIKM
Protocol: In-Vitro (Enzyme) Assay for Determination of the Efficacy of Inhibitors of the Inhibition of TGF-Beta-Mediated Effects
The kinase assay was carried out as 384-well flashplate assay. 31.2 nM of GST-ALK5, 439 nM of GST-SMAD2 and 3 mM of ATP (with 0.3 μCi of ^33P-ATP/well) were incubated in a total volume of 35 μl (20 mM of HEPES, 10 mM of MgCl2, 5 mM of MnCl2, 1 mM of DTT, 0.1% of BSA, pH 7.4) without or with test substance (5-10 concentrations) at 30° C. for 45 min. The reaction was stopped using 25 μl of 200 mM EDTA solution, filtered with suction at room temperature after 30 min, and the wells were washed with 3 times 100 μl of 0.9% NaCl solution. Radioactivity was measured in the TopCount. The IC50 values were calculated using RS1. Above and below, all temperatures were indicated in ° C.

Row | Structure (SMILES) | pIC50 [1] | pIC50 (GST-ALK5)
1 | CCCC(=O)Nc1cc(Nc2cc(-c3cc(Cl)ccc3F)nc3ncccc23)ccn1 [compound 91] | > 7.00 | > 7.00
2 | CN(C)CCNC(=O)c1cc(Nc2cc(-c3cc(F)ccc3F)nc3ncccc23)ccn1 [compound 119] | < 5.00 | 5.00 to 6.00
3 | O=C(NCCN1CCCC1)c1cc(Nc2cc(-c3cc(F)ccc3F)nc3ncccc23)ccn1 [compound 122] | < 5.00 | 5.00 to 6.00
4 | COC(=O)c1nccc2c1ccn2-c1cc(-c2cc(Cl)ccc2F)nc2ncccc12 [compound 108] | 5.00 to 6.00 | 6.00 to 7.00
5 | CN1CCC(C(=O)Nc2cc(Nc3cc(-c4cc(F)ccc4F)nc4ncccc34)ncn2)CC1 [compound 117] | > 7.00 | > 7.00
6 | Nc1cc(Nc2cc(-c3cc(F)ccc3F)nc3ncccc23)ncn1 [compound 106] | 6.00 to 7.00 | > 7.00
7 | CN(C)c1cc(Nc2cc(-c3cc(Cl)ccc3F)nc3ncccc23)ncn1 [compound 121] | > 7.00 | > 7.00
8 | CC(=O)Nc1cc(Nc2cc(-c3cc(F)ccc3F)nc3ncccc23)ncn1 [compound 89] | > 7.00 | > 7.00
9 | CNc1nccc(Nc2cc(-c3cccc(C)n3)nc3ncccc23)n1 [compound 90] | 6.00 to 7.00 | > 7.00
10 | CCOc1ccc(Cl)cc1-c1cc(Nc2ccnc(NC(C)=O)c2)c2cccnc2n1 [compound 79] | 6.00 to 7.00 | 6.00 to 7.00
11 | NCC(=O)Nc1cc(Nc2cc(-c3cc(Cl)ccc3F)nc3ncccc23)ncn1 [compound 110] | > 7.00 | > 7.00
12 | CNC(=O)c1cc(Nc2cc(-c3cc(F)ccc3F)nc3ncccc23)ccn1 [compound 118] | 5.00 to 6.00 | 6.00 to 7.00
13 | NC(=O)Nc1cc(Nc2cc(-c3cc(F)ccc3F)nc3ncccc23)ccn1 [compound 143] | > 7.00 | > 7.00
14 | CCOC(=O)c1cc(Nc2cc(-c3cc(F)ccc3F)nc3ncccc23)ccn1 [compound 128] | < 5.00 | < 5.00
15 | NCCC(=O)Nc1cc(Nc2cc(-c3cc(Cl)ccc3F)nc3ncccc23)ncn1 [compound 94] | > 7.00 | > 7.00
16 | Cc1cccc(-c2cc(Nc3ccnc(NC(N)=O)c3)c3cccnc3n2)n1 [compound 85] | 6.00 to 7.00 | > 7.00
17 | Oc1nccc(Nc2cc(-c3cc(Cl)ccc3F)nc3ncccc23)n1 [compound 76] | 5.00 to 6.00 | 6.00 to 7.00
18 | CC(C)(N)C(=O)Nc1cc(Nc2cc(-c3cc(Cl)ccc3F)nc3ncccc23)ncn1 [compound 136] | 6.00 to 7.00 | 6.00 to 7.00
19 | Fc1ccccc1-c1cc(-n2ccc3cncnc32)c2cccnc2n1 [compound 96] | 5.00 to 6.00 | 6.00 to 7.00
20 | CN1CCC(NC(=O)c2cnccc2Nc2cc(-c3cc(F)ccc3F)nc3ncccc23)CC1 [compound 113] | > 7.00 | > 7.00
21 | Cc1cccc(-c2cc(Nc3ccnc(Cl)c3)c3cccnc3n2)n1 [compound 83] | 5.00 to 6.00 | 6.00 to 7.00
22 | Nc1cc(Nc2cc(-c3ccccc3F)nc3ncccc23)ncn1 [compound 86] | 6.00 to 7.00 | > 7.00
23 | CN1CCC(C(=O)Nc2cc(Nc3cc(-c4ccccc4F)nc4ncccc34)ncn2)CC1 [compound 115] | 6.00 to 7.00 | > 7.00
24 | CC(C)(C)CC(=O)Nc1cc(Nc2cc(-c3ccccc3F)nc3ncccc23)ncn1 [compound 114] | 6.00 to 7.00 | > 7.00
25 | Cc1cc(-c2cc(Nc3cc(NCCN4CCCC4)ncn3)c3cccnc3n2)c(C)o1 [compound 147] | < 5.00 | 5.00 to 6.00
26 | O=C(NCCN1CCCC1)c1cnccc1Nc1cc(-c2cc(Cl)ccc2F)nc2ncccc12 [compound 133] | > 7.00 | > 7.00
27 | CC(C)(C)OC(=O)NC(C)(C)C(=O)Nc1cc(Nc2cc(-c3cc(Cl)ccc3F)nc3ncccc23)ncn1 [compound 134] | < 5.00 | < 5.00
28 | CN1CCN(c2nccc(Nc3cc(-c4cc(Cl)ccc4F)nc4ncccc34)n2)CC1 [compound 93] | < 5.00 | < 5.00
